Assay results reported in PubChem BioAssay AID330 (DTP/NCI, 2004).
Values joined by “and” are separate entries in the source; they are usually repeats but may differ in a detail not shown here. Identical values can stand only once. Inconclusive results and toxic doses are left out. How the source made its calls: active means survival T/C of 150% or more; inactive means T/C below 125% in these data.

Test system: P388 leukemia ip, CD2F1 mice, survival T/C
Experiment: NCI In Vivo Anticancer Drug Screen. Data for tumor model P388 Leukemia (intraperitoneal) in CD2F1 (CDF1) mice
Conditions: endpoint: median survival time, higher = longer survival
Procedure, shortened: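 Mice carrying the transplanted tumor received test compound or vehicle. Survival was recorded in each group, and the value is the treated-group measurement divided by that of the vehicle-treated control group.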

[1] = dose: 50.0 mg/kg/injection, schedule: Q01DX005 (ip), vehicle: saline with Tween-80
[2] = dose: 25.0 mg/kg/injection, schedule: Q01DX009 (ip), vehicle: other
[3] = dose: 50.0 mg/kg/injection, schedule: Q01DX009 (ip), vehicle: other
[4] = dose: 60.0 mg/kg/injection, schedule: Q01DX005 (ip), vehicle: Klucel (hydroxypropylcellulose) (HPC)
[5] = dose: 120.0 mg/kg/injection, schedule: Q01DX005 (ip), vehicle: Klucel (hydroxypropylcellulose) (HPC)
[6] = dose: 240.0 mg/kg/injection, schedule: Q01DX005 (ip), vehicle: Klucel (hydroxypropylcellulose) (HPC)
[7] = dose: 50.0 mg/kg/injection, schedule: Q01DX009 (ip), vehicle: saline
[8] = dose: 100.0 mg/kg/injection, schedule: Q01DX009 (ip), vehicle: saline
[9] = dose: 200.0 mg/kg/injection, schedule: Q01DX009 (ip), vehicle: saline
[10] = dose: 60.0 mg/kg/injection, schedule: Q01DX005 (ip), vehicle: saline with Tween-80
[11] = dose: 120.0 mg/kg/injection, schedule: Q01DX005 (ip), vehicle: saline with Tween-80
[12] = dose: 240.0 mg/kg/injection, schedule: Q01DX005 (ip), vehicle: saline with Tween-80

Measured: T/C

CC(=O)/C(=C\c1ccc(/C=C(\C(C)=O)C(=O)CCN(C)C)cc1)C(=O)CCN(C)C
inactive: [1] 109 % of control and 118 % of control | dose: 100.0 mg/kg/injection, schedule: Q01DX005 (ip), vehicle: saline with Tween-80 120 % of control | dose: 200.0 mg/kg/injection, schedule: Q01DX005 (ip), vehicle: saline with Tween-80 105 % of control | dose: 400.0 mg/kg/injection, schedule: Q01DX005 (ip), vehicle: saline with Tween-80 120 % of control

COc1ccc(CCNC(=O)c2ccc(OC)c(OCc3ccccc3)c2)cc1OC
inactive: [2] 97 % of control | [3] 95 % of control | dose: 100.0 mg/kg/injection, schedule: Q01DX009 (ip), vehicle: other 89 % of control | dose: 200.0 mg/kg/injection, schedule: Q01DX009 (ip), vehicle: other 89 % of control | dose: 400.0 mg/kg/injection, schedule: Q01DX009 (ip), vehicle: other 90 % of control

COC(=O)C12CC=CC1C(C)CC2 (stereo unspecified)
inactive: dose: 75.0 mg/kg/injection, schedule: Q04DX002 (ip), vehicle: Klucel (hydroxypropylcellulose) (HPC) 100 % of control | dose: 150.0 mg/kg/injection, schedule: Q04DX002 (ip), vehicle: Klucel (hydroxypropylcellulose) (HPC) 100 % of control | dose: 300.0 mg/kg/injection, schedule: Q04DX002 (ip), vehicle: Klucel (hydroxypropylcellulose) (HPC) 100 % of control

COc1cc(OC)c2c(=O)c3cccc([N+](=O)[O-])c3n(C)c2c1
inactive: dose: 100.0 mg/kg/injection, schedule: Q01DX001 (ip), vehicle: saline with Tween-80 104 % of control | dose: 200.0 mg/kg/injection, schedule: Q01DX001 (ip), vehicle: saline with Tween-80 100 % of control | dose: 400.0 mg/kg/injection, schedule: Q01DX001 (ip), vehicle: saline with Tween-80 98 % of control

Cc1cnc(Sc2ncccc2[N+](=O)[O-])[nH]c1=O
inactive: dose: 50.0 mg/kg/injection, schedule: Q01DX005 (ip), vehicle: Klucel (hydroxypropylcellulose) (HPC) 107 % of control | dose: 100.0 mg/kg/injection, schedule: Q01DX005 (ip), vehicle: Klucel (hydroxypropylcellulose) (HPC) 93 % of control | dose: 200.0 mg/kg/injection, schedule: Q01DX005 (ip), vehicle: Klucel (hydroxypropylcellulose) (HPC) 97 % of control

C[C@]12CC[C@@H](OC(=O)N(CCCl)N=O)C[C@@H]1CC[C@@H]1[C@@H]2CC[C@]2(C)C(=O)CC[C@@H]12
inactive: dose: 25.0 mg/kg/injection, schedule: Q01DX005 (ip), vehicle: other 105 % of control | [2] 121 % of control | dose: 31.2 mg/kg/injection, schedule: Q04DX003 (ip), vehicle: saline 111 % of control | dose: 50.0 mg/kg/injection, schedule: Q01DX005 (ip), vehicle: other 122 % of control | [3] 123 % of control | dose: 50.0 mg/kg/injection, schedule: Q01DX009 (ip), vehicle: saline with Tween-80 97 % of control | dose: 62.5 mg/kg/injection, schedule: Q04DX003 (ip), vehicle: saline 109 % of control | dose: 100.0 mg/kg/injection, schedule: Q01DX005 (ip), vehicle: other 114 % of control | dose: 100.0 mg/kg/injection, schedule: Q01DX009 (ip), vehicle: saline with Tween-80 100 % of control | dose: 125.0 mg/kg/injection, schedule: Q04DX003 (ip), vehicle: saline 108 % of control and 112 % of control | dose: 200.0 mg/kg/injection, schedule: Q01DX009 (ip), vehicle: saline with Tween-80 97 % of control | dose: 250.0 mg/kg/injection, schedule: Q04DX003 (ip), vehicle: saline 100 % of control

CCSC(=Nc1nc2ccc([N+](=O)[O-])cc2s1)SCC
inactive: dose: 6.25 mg/kg/injection, schedule: Q01DX009 (ip), vehicle: Klucel (hydroxypropylcellulose) (HPC) 104 % of control | dose: 12.5 mg/kg/injection, schedule: Q01DX009 (ip), vehicle: Klucel (hydroxypropylcellulose) (HPC) 111 % of control | dose: 25.0 mg/kg/injection, schedule: Q01DX009 (ip), vehicle: Klucel (hydroxypropylcellulose) (HPC) 98 % of control

Cc1cc2nc3ccc(N(C)C)cc3nc2cc1N
inactive: dose: 12.5 mg/kg/injection, schedule: Q01DX005 (ip), vehicle: saline 96 % of control | dose: 25.0 mg/kg/injection, schedule: Q01DX005 (ip), vehicle: saline 100 % of control | [1] 95 % of control | dose: 50.0 mg/kg/injection, schedule: Q01DX005 (ip), vehicle: saline 112 % of control

CC(C)CC(NC(=O)C(Cc1ccccc1)NC(=O)CNC(=O)CNC(=O)C(N)Cc1ccc(O)cc1)C(N)=O (stereo unspecified)
inactive: dose: 8.75 mg/kg/injection, schedule: Q01DX005 (ip), vehicle: saline 108 % of control | dose: 17.5 mg/kg/injection, schedule: Q01DX005 (ip), vehicle: saline 110 % of control | dose: 35.0 mg/kg/injection, schedule: Q01DX005 (ip), vehicle: saline 104 % of control | dose: 70.0 mg/kg/injection, schedule: Q01DX005 (ip), vehicle: saline 112 % of control | dose: 140.0 mg/kg/injection, schedule: Q01DX005 (ip), vehicle: saline 108 % of control

NC(=O)C(N)CCCC1NC(=S)N(c2ccccc2)C1=O (stereo unspecified)
inactive: [4] 92 % of control | [5] 93 % of control | [6] 86 % of control

O=c1[nH]c(=O)c2nc(-c3ccccn3)cnc2[nH]1
inactive: dose: 50.0 mg/kg/injection, schedule: Q01DX001 (ip), vehicle: saline 101 % of control | dose: 100.0 mg/kg/injection, schedule: Q01DX001 (ip), vehicle: saline 90 % of control | dose: 200.0 mg/kg/injection, schedule: Q01DX001 (ip), vehicle: saline 92 % of control

CCN(CC)CCSc1c2ccccc2nc2ccccc12
inactive: dose: 3.75 mg/kg/injection, schedule: Q01DX005 (ip), vehicle: saline with Tween-80 110 % of control | dose: 7.5 mg/kg/injection, schedule: Q01DX005 (ip), vehicle: saline with Tween-80 114 % of control | dose: 15.0 mg/kg/injection, schedule: Q01DX005 (ip), vehicle: saline with Tween-80 107 % of control

O=C(Nc1ccccc1)Sc1nc2ccccc2s1
inactive: [7] 102 % of control | [8] 104 % of control | [9] 104 % of control

CCCCN1C(=O)[C@@H]2[C@H](c3ccccc3O)C(c3ccccc3O)[C@@H]2C1=O (stereo partly specified)
inactive: [4] 100 % of control | [5] 92 % of control | [6] 100 % of control

OC1CC2CC1CC2O (stereo unspecified)
inactive: [7] 101 % of control | [8] 98 % of control | [9] 104 % of control

O=C(O)Cc1c(-c2noc(-c3ccccc3)c2CC(=O)O)noc1-c1ccccc1
inactive: [10] 99 % of control | [11] 103 % of control | [12] 108 % of control

[O-]/[N+]1=[N+](\[O-])c2ccccc2CCCc2ccccc21
inactive: [10] 102 % of control | [11] 100 % of control | [12] 88 % of control

CC1(C)O[C@H]2CC(=O)OC[C@@]23[C@H]1CC(=O)[C@@]1(C)C2=CCC(c4ccoc4)[C@]2(C)CC[C@@H]13 (stereo partly specified)
inactive: dose: 3.12 mg/kg/injection, schedule: Q01DX005 (ip), vehicle: distilled water + Tween-80 95 % of control | dose: 6.25 mg/kg/injection, schedule: Q01DX005 (ip), vehicle: distilled water + Tween-80 99 % of control | dose: 12.5 mg/kg/injection, schedule: Q01DX005 (ip), vehicle: distilled water + Tween-80 102 % of control | dose: 25.0 mg/kg/injection, schedule: Q01DX005 (ip), vehicle: distilled water + Tween-80 116 % of control | dose: 50.0 mg/kg/injection, schedule: Q01DX005 (ip), vehicle: distilled water + Tween-80 92 % of control
